# ChEMBL document CHEMBL6078713, “Synthesis and mechanistic studies of 4-aminoquinoline-Isatin molecular hybrids and Schiff's bases as promising antimicrobial agents” (Eur J Med Chem, 2025)
# Activity calls are given as the source filed them. The calls are words filed in the database; no cut-off is given here.
# Columns and labels:
# Escherichia coli [1] = test: Synergistic antibacterial activity against Escherichia coli MTCC 443 assessed as inhibition of bacterial growth incubated overnight in presence of ciprofloxacin by serial dilution based spectrophotometer; type: functional
# Pseudomonas aeruginosa [2] = test: Bactericidal activity against Pseudomonas aeruginosa MTCC 2453 assessed as inhibition of bacterial growth incubated overnight; type: functional
# Staphylococcus aureus [3] = test: Antibacterial activity against Staphylococcus aureus MTCC 902 assessed as diameter of zone of inhibition at MIC incubated overnight by disk diffusion method; type: functional
# Enterococcus faecalis [4] = test: Antibacterial activity against Enterococcus faecalis MTCC 439 assessed as diameter of zone of inhibition at 0.5 times MIC incubated overnight by disk diffusion method; type: functional
# Bacillus subtilis [5] = test: Synergistic antibacterial activity against Bacillus subtilis MTCC 736 assessed as inhibition of bacterial growth incubated overnight in presence of ciprofloxacin by serial dilution based spectrophotometer; type: functional
# Pseudomonas aeruginosa [6] = test: Antibacterial activity against Pseudomonas aeruginosa MTCC 2453 assessed as diameter of zone of inhibition at 2 times MIC incubated overnight by disk diffusion method; type: functional
# Enterococcus faecalis [7] = test: Antibacterial activity against Enterococcus faecalis MTCC 439 assessed as inhibition of bacterial growth at 200 ug/ml incubated overnight by spectrophotometry relative to control; type: functional
# Salmonella typhi [8] = test: Synergistic antibacterial activity against Salmonella typhi assessed as fractional inhibitory concentration index incubated overnight in presence of ciprofloxacin by microdilution checkerboard assay; type: functional, Salmonella enterica subsp. enterica serovar Typhi
# Salmonella typhi [9] = test: Ratio of MBC for antibacterial activity against Salmonella typhi to MIC for bactericidal activity against Salmonella typhi; type: functional, Salmonella enterica subsp. enterica serovar Typhi
# Staphylococcus aureus [10] = test: Bacteriostatic activity against Staphylococcus aureus MTCC 902 assessed as reduction in bacterial growth at 2 times MIC measured upto 24 hrs by absorbance based assay; type: functional, organism-based
# Bacillus subtilis [11] = test: Antibacterial activity against Bacillus subtilis MTCC 736 assessed as diameter of zone of inhibition at MIC incubated overnight by disk diffusion method; type: functional
# Staphylococcus aureus [12] = test: Bactericidal activity against Staphylococcus aureus MTCC 902 assessed as inhibition of bacterial growth incubated overnight; type: functional
# Salmonella typhi [13] = test: Antibacterial activity against Salmonella typhi assessed as diameter of zone of inhibition at 500 ug/ml by agar disk diffusion method; type: functional, Salmonella enterica subsp. enterica serovar Typhi; settings: Salmonella enterica, read-out: DIZ
# Salmonella typhi [14] = test: Antibacterial activity against Salmonella typhi assessed as diameter of zone of inhibition at 2 times MIC incubated overnight by disk diffusion method; type: functional, Salmonella enterica subsp. enterica serovar Typhi
# Pseudomonas aeruginosa [15] = test: Synergistic antibacterial activity against Pseudomonas aeruginosa MTCC 2453 assessed as inhibition of bacterial growth incubated overnight in presence of ciprofloxacin by serial dilution based spectrophotometer; type: functional
# Escherichia coli [16] = test: Bacteriostatic activity against Escherichia coli MTCC 443 assessed as reduction in bacterial growth at 2 times MIC measured upto 24 hrs by absorbance based assay; type: functional, organism-based
# Enterococcus faecalis [17] = test: Synergistic antibacterial activity against Enterococcus faecalis MTCC 439 assessed as fractional inhibitory concentration index incubated overnight in presence of ciprofloxacin by microdilution checkerboard assay; type: functional
# Bacillus subtilis [18] = test: Antibacterial activity against Bacillus subtilis MTCC 736 assessed as diameter of zone of inhibition at 2 times MIC incubated overnight by disk diffusion method; type: functional
# Escherichia coli [19] = test: Synergistic antibacterial activity against Escherichia coli MTCC 443 assessed as fractional inhibitory concentration index incubated overnight in presence of ciprofloxacin by microdilution checkerboard assay; type: functional
# Staphylococcus aureus [20] = test: Antibacterial activity against Staphylococcus aureus MTCC 902 assessed as inhibition of bacterial growth incubated overnight by serial dilution based spectrophotometer; type: functional
# Enterococcus faecalis [21] = test: Antibacterial activity against Enterococcus faecalis MTCC 439 assessed as diameter of zone of inhibition at MIC incubated overnight by disk diffusion method; type: functional
# Enterococcus faecalis [22] = test: Antibacterial activity against Enterococcus faecalis MTCC 439 assessed as diameter of zone of inhibition at 2 times MIC incubated overnight by disk diffusion method; type: functional
# Bacillus subtilis [23] = test: Bactericidal activity against Bacillus subtilis MTCC 736 assessed as inhibition of bacterial growth incubated overnight; type: functional
# Staphylococcus aureus [24] = test: Antibacterial activity against Staphylococcus aureus MTCC 902 assessed as diameter of zone of inhibition at 500 ug/ml by agar disk diffusion method; type: functional; settings: read-out: DIZ
# Enterococcus faecalis [25] = test: Synergistic antibacterial activity against Enterococcus faecalis MTCC 439 assessed as inhibition of bacterial growth incubated overnight in presence of ciprofloxacin by serial dilution based spectrophotometer; type: functional
# Pseudomonas aeruginosa [26] = test: Antibacterial activity against Pseudomonas aeruginosa MTCC 2453 assessed as diameter of zone of inhibition at 500 ug/ml by agar disk diffusion method; type: functional; settings: read-out: DIZ
# Escherichia coli [27] = test: Antibacterial activity against Escherichia coli MTCC 443 assessed as diameter of zone of inhibition at MIC incubated overnight by disk diffusion method; type: functional
# Salmonella typhi [28] = test: Bactericidal activity against Salmonella typhi assessed as inhibition of bacterial growth incubated overnight; type: functional, Salmonella enterica subsp. enterica serovar Typhi; settings: Salmonella enterica
# Bacillus subtilis [29] = test: Ratio of MBC for antibacterial activity against Bacillus subtilis MTCC 736 to MIC for bactericidal activity against Bacillus subtilis MTCC 736; type: functional
# Pseudomonas aeruginosa [30] = test: Antibacterial activity against Pseudomonas aeruginosa MTCC 2453 assessed as inhibition of bacterial growth at 200 ug/ml incubated overnight by spectrophotometry relative to control; type: functional
# Salmonella typhi [31] = test: Antibacterial activity against Salmonella typhi assessed as diameter of zone of inhibition at 0.5 times MIC incubated overnight by disk diffusion method; type: functional, Salmonella enterica subsp. enterica serovar Typhi
# Escherichia coli [32] = test: Antibacterial activity against Escherichia coli MTCC 443 assessed as diameter of zone of inhibition at 2 times MIC incubated overnight by disk diffusion method; type: functional
# Bacillus subtilis [33] = test: Antibacterial activity against Bacillus subtilis MTCC 736 assessed as diameter of zone of inhibition at 500 ug/ml by agar disk diffusion method; type: functional; settings: read-out: DIZ
# Escherichia coli [34] = test: Antibacterial activity against Escherichia coli MTCC 443 assessed as diameter of zone of inhibition at 500 ug/ml by agar disk diffusion method; type: functional; settings: read-out: DIZ
# Salmonella typhi [35] = test: Antibacterial activity against Salmonella typhi assessed as inhibition of bacterial growth incubated overnight by serial dilution based spectrophotometer; type: functional, Salmonella enterica subsp. enterica serovar Typhi; settings: Salmonella enterica
# Salmonella typhi [36] = test: Antibacterial activity against Salmonella typhi assessed as diameter of zone of inhibition at MIC incubated overnight by disk diffusion method; type: functional, Salmonella enterica subsp. enterica serovar Typhi
# Escherichia coli [37] = test: Ratio of MBC for antibacterial activity against Escherichia coli MTCC 443 to MIC for bactericidal activity against Escherichia coli MTCC 443; type: functional
# Enterococcus faecalis [38] = test: Antibacterial activity against Enterococcus faecalis MTCC 439 assessed as inhibition of bacterial growth incubated overnight by serial dilution based spectrophotometer; type: functional
# Pseudomonas aeruginosa [39] = test: Antibacterial activity against Pseudomonas aeruginosa MTCC 2453 assessed as diameter of zone of inhibition at MIC incubated overnight by disk diffusion method; type: functional
# Escherichia coli [40] = test: Bactericidal activity against Escherichia coli MTCC 443 assessed as inhibition of bacterial growth incubated overnight; type: functional
# Staphylococcus aureus [41] = test: Synergistic antibacterial activity against Staphylococcus aureus MTCC 902 assessed as inhibition of bacterial growth incubated overnight in presence of ciprofloxacin by serial dilution based spectrophotometer; type: functional
# Staphylococcus aureus [42] = test: Antibacterial activity against Staphylococcus aureus MTCC 902 assessed as diameter of zone of inhibition at 2 times MIC incubated overnight by disk diffusion method; type: functional
# Enterococcus faecalis [43] = test: Antibacterial activity against Enterococcus faecalis MTCC 439 assessed as diameter of zone of inhibition at 500 ug/ml by agar disk diffusion method; type: functional; settings: read-out: DIZ
# Bacillus subtilis [44] = test: Synergistic antibacterial activity against Bacillus subtilis MTCC 736 assessed as fractional inhibitory concentration index incubated overnight in presence of ciprofloxacin by microdilution checkerboard assay; type: functional
# Pseudomonas aeruginosa [45] = test: Ratio of MBC for antibacterial activity against Pseudomonas aeruginosa MTCC 2453 to MIC for bactericidal activity against Pseudomonas aeruginosa MTCC 2453; type: functional
# Bacillus subtilis [46] = test: Antibacterial activity against Bacillus subtilis MTCC 736 assessed as inhibition of bacterial growth at 200 ug/ml incubated overnight by spectrophotometry relative to control; type: functional
# Pseudomonas aeruginosa [47] = test: Antibacterial activity against Pseudomonas aeruginosa MTCC 2453 assessed as inhibition of bacterial growth incubated overnight by serial dilution based spectrophotometer; type: functional
# Salmonella typhi [48] = test: Synergistic antibacterial activity against Salmonella typhi assessed as inhibition of bacterial growth incubated overnight in presence of ciprofloxacin by serial dilution based spectrophotometer; type: functional, Salmonella enterica subsp. enterica serovar Typhi; settings: Salmonella enterica
# Pseudomonas aeruginosa [49] = test: Synergistic antibacterial activity against Pseudomonas aeruginosa MTCC 2453 assessed as fractional inhibitory concentration index incubated overnight in presence of ciprofloxacin by microdilution checkerboard assay; type: functional
# Bacillus subtilis [50] = test: Antibacterial activity against Bacillus subtilis MTCC 736 assessed as diameter of zone of inhibition at 0.5 times MIC incubated overnight by disk diffusion method; type: functional
# Enterococcus faecalis [51] = test: Bactericidal activity against Enterococcus faecalis MTCC 439 assessed as inhibition of bacterial growth incubated overnight; type: functional
# Escherichia coli [52] = test: Antibacterial activity against Escherichia coli MTCC 443 assessed as inhibition of bacterial growth incubated overnight by serial dilution based spectrophotometer; type: functional
# Staphylococcus aureus [53] = test: Synergistic antibacterial activity against Staphylococcus aureus MTCC 902 assessed as fractional inhibitory concentration index incubated overnight in presence of ciprofloxacin by microdilution checkerboard assay; type: functional
# Bacillus subtilis [54] = test: Antibacterial activity against Bacillus subtilis MTCC 736 assessed as inhibition of bacterial growth incubated overnight by serial dilution based spectrophotometer; type: functional
smiles,measurement,setting,value
Fc1ccc(/C=N/CCNc2ccnc3cc(Cl)ccc23)cc1,MIC,Escherichia coli [1],64 µg/mL
same,MBC,Pseudomonas aeruginosa [2],512 µg/mL
same,diameter of the inhibition zone (DIZ),Staphylococcus aureus [3],8 mm
same,diameter of the inhibition zone (DIZ),Enterococcus faecalis [4],7 mm
same,MIC,Bacillus subtilis [5],256 µg/mL
same,diameter of the inhibition zone (DIZ),Pseudomonas aeruginosa [6],9 mm
same,inhibition at 200 µg/mL,Enterococcus faecalis [7],100%
same,fractional inhibitory concentration index (FICI),Salmonella typhi [8],0.187
same,Ratio,Salmonella typhi [9],1
same,Activity,Staphylococcus aureus [10],Active
same,diameter of the inhibition zone (DIZ),Bacillus subtilis [11],9 mm
same,MBC,Staphylococcus aureus [12],> 512 µg/mL
same,zone of inhibition at 500 µg/mL,Salmonella typhi [13],11 mm
same,diameter of the inhibition zone (DIZ),Salmonella typhi [14],11 mm
same,MIC,Pseudomonas aeruginosa [15],256 µg/mL
same,Activity,Escherichia coli [16],Active
same,fractional inhibitory concentration index (FICI),Enterococcus faecalis [17],1.5
same,diameter of the inhibition zone (DIZ),Bacillus subtilis [18],13 mm
same,fractional inhibitory concentration index (FICI),Escherichia coli [19],0.37
same,MIC,Staphylococcus aureus [20],256 µg/mL
same,diameter of the inhibition zone (DIZ),Enterococcus faecalis [21],7 mm
same,diameter of the inhibition zone (DIZ),Enterococcus faecalis [22],7 mm
same,MBC,Bacillus subtilis [23],256 µg/mL
same,zone of inhibition at 500 µg/mL,Staphylococcus aureus [24],9 mm
same,MIC,Enterococcus faecalis [25],128 µg/mL
same,zone of inhibition at 500 µg/mL,Pseudomonas aeruginosa [26],7 mm
same,diameter of the inhibition zone (DIZ),Escherichia coli [27],10 mm
same,MBC,Salmonella typhi [28],128 µg/mL
same,Ratio,Bacillus subtilis [29],1
same,inhibition at 200 µg/mL,Pseudomonas aeruginosa [30],100%
same,diameter of the inhibition zone (DIZ),Salmonella typhi [31],10 mm
same,diameter of the inhibition zone (DIZ),Escherichia coli [32],13 mm
same,zone of inhibition at 500 µg/mL,Bacillus subtilis [33],10 mm
same,zone of inhibition at 500 µg/mL,Escherichia coli [34],8 mm
same,MIC,Salmonella typhi [35],128 µg/mL
same,diameter of the inhibition zone (DIZ),Salmonella typhi [36],10 mm
same,Ratio,Escherichia coli [37],1
same,MIC,Enterococcus faecalis [38],256 µg/mL
same,diameter of the inhibition zone (DIZ),Pseudomonas aeruginosa [39],8 mm
same,MBC,Escherichia coli [40],512 µg/mL
same,MIC,Staphylococcus aureus [41],32 µg/mL
same,diameter of the inhibition zone (DIZ),Staphylococcus aureus [42],10 mm
same,zone of inhibition at 500 µg/mL,Enterococcus faecalis [43],10 mm
same,fractional inhibitory concentration index (FICI),Bacillus subtilis [44],2
same,Ratio,Pseudomonas aeruginosa [45],1
same,inhibition at 200 µg/mL,Bacillus subtilis [46],100%
same,MIC,Pseudomonas aeruginosa [47],512 µg/mL
same,MIC,Salmonella typhi [48],16 µg/mL
same,fractional inhibitory concentration index (FICI),Pseudomonas aeruginosa [49],1.5
same,diameter of the inhibition zone (DIZ),Bacillus subtilis [50],9 mm
same,MBC,Enterococcus faecalis [51],> 512 µg/mL
same,MIC,Escherichia coli [52],512 µg/mL
same,fractional inhibitory concentration index (FICI),Staphylococcus aureus [53],1.12
same,MIC,Bacillus subtilis [54],256 µg/mL
